System: liver fibrosis gene panel (770 genes)
Assay: Nanostring nCounter Fibrosis panel gene expression in liver of DEN-injected mice
Type: in vivo, mouse
Conditions: vs vehicle
Protocol: Nanostring Analysis. RNA was extracted from paired liver and tumor tissue from vehicle, Compound I-1 (100 mg/kg) and Compound I-32 (100 mg/kg) treated mice using an RNeasy kit (Qiagen, Calif., USA) as per manufacturer's protocol. All RNA samples passed the BioAnalyzer quality control test. The expression of target genes in liver and tumor were analyzed using the nCounter Fibrosis and Cancer Panel (NanoString Technologies, Inc., WA, USA), respectively according to manufacturer's protocol at the McMaster Genomics Facility. Technical and biological normalization against global geometric mean was performed in nSolver 4.0 software (NanoString Technologies). Technical normalization was performed in the nSolver software (version 4.0.70) by normalizing sample target raw counts to the geometric mean of positive control spike-ins. Biological normalization was performed by normalizing sample target raw counts to the geometric mean of selected housekeeping genes (Ppia, Nubp1, Nol7, Armh3, Rplp0, Cnot10, Pgk1, and Acad9). Pathway scores were calculated as the first principal component of the normalized expression values for all genes in each pathway and samples were compiled according to experimental groups to determine average pathway scores. Statistical significance was calculated between experimental groups using multiple t-tests and p-values were corrected for multiple comparisons using Benjamin-Hochberg false discovery rate.
Molecular analysis. To identify the pathways modulated in the liver and tumor tissue, nanostring analysis of fibrosis and cancer, pathways, respectively were completed in an n=8 mice treated with vehicle or Compound I-32 or Compound I-1 at 100 mg/kg.

CC(C)(CCCCc1cccc(CCCCC(C)(C)C(=O)O)c1)C(=O)O [Compound I-32, 6-[3-(5-carboxy-5-methylhexyl)-phenyl]-2,2-dimethylhexanoic acid]
Cpt1a Log2FC (NM_013495, 100 mg/kg): −0.363
Creb3 Log2FC (NM_013497, 100 mg/kg): −0.409
P3h3 Log2FC (NM_013534, 100 mg/kg): −0.96
Rora Log2FC (NM_013646, 100 mg/kg): 0.258
Slc25a10 Log2FC (NM_013770, 100 mg/kg): 0.324
H2-M3 Log2FC (NM_013819, 100 mg/kg): −0.633
Xbp1 Log2FC (NM_013842, 100 mg/kg): −0.29
Col5a1 Log2FC (NM_015734, 100 mg/kg): −0.601
Ero1l Log2FC (NM_015774, 100 mg/kg): 0.269
Cfhr1 Log2FC (NM_015780, 100 mg/kg): −0.283
Isg15 Log2FC (NM_015783, 100 mg/kg): −0.673
C6 Log2FC (NM_016704, 100 mg/kg): −1.04
Irf3 Log2FC (NM_016849, 100 mg/kg): −0.206
Actr1a Log2FC (NM_016860, 100 mg/kg): −0.192
Ywhag Log2FC (NM_018871, 100 mg/kg): 0.265
Fbp1 Log2FC (NM_019395, 100 mg/kg): −0.981
Ppp2ca Log2FC (NM_019411, 100 mg/kg): −0.123
Atf7ip Log2FC (NM_019426, 100 mg/kg): −0.289
Ndufa1 Log2FC (NM_019443, 100 mg/kg): 0.156
Htra2 Log2FC (NM_019752, 100 mg/kg): −0.286
Cpb2 Log2FC (NM_019775, 100 mg/kg): −0.467
Uba52 Log2FC (NM_019883, 100 mg/kg): 0.433
Ube2d2a Log2FC (NM_019912, 100 mg/kg): −0.231
Aldh9a1 Log2FC (NM_019993, 100 mg/kg): 0.467
Angptl4 Log2FC (NM_020581, 100 mg/kg): 0.413
Isg20 Log2FC (NM_020583, 100 mg/kg): −0.491
Abcb11 Log2FC (NM_021022, 100 mg/kg): −0.503
Rps6kb2 Log2FC (NM_021485, 100 mg/kg): −0.398
Cxcl12 Log2FC (NM_021704, 100 mg/kg): −0.535
Apoc3 Log2FC (NM_023114, 100 mg/kg): −0.391
Cxcl16 Log2FC (NM_023158, 100 mg/kg): −0.445
Ern1 Log2FC (NM_023913, 100 mg/kg): −0.451
Sec61b Log2FC (NM_024171, 100 mg/kg): −0.37
Hsbp1 Log2FC (NM_024219, 100 mg/kg): −0.155
Cyp27a1 Log2FC (NM_024264, 100 mg/kg): −0.71
Fabp4 Log2FC (NM_024406, 100 mg/kg): 0.887
Ndufb5 Log2FC (NM_025316, 100 mg/kg): 0.36
Ssr2 Log2FC (NM_025448, 100 mg/kg): −0.208
Psenen Log2FC (NM_025498, 100 mg/kg): −0.154
Ndufc1 Log2FC (NM_025523, 100 mg/kg): 0.363
Cox6b1 Log2FC (NM_025628, 100 mg/kg): 0.405
Uqcrh Log2FC (NM_025641, 100 mg/kg): 0.28
Uqcrfs1 Log2FC (NM_025710, 100 mg/kg): 0.188
Map1lc3a Log2FC (NM_025735, 100 mg/kg): 0.744
Ndufb8 Log2FC (NM_026061, 100 mg/kg): 0.279
Erp29 Log2FC (NM_026129, 100 mg/kg): −0.277
Uqcrb Log2FC (NM_026219, 100 mg/kg): 0.377
Sugt1 Log2FC (NM_026474, 100 mg/kg): 0.15
Atg101 Log2FC (NM_026566, 100 mg/kg): −0.483
Ndufs3 Log2FC (NM_026688, 100 mg/kg): 0.148
Ifi35 Log2FC (NM_027320, 100 mg/kg): −0.447
Pgm2 Log2FC (NM_028132, 100 mg/kg): 0.339
Phykpl Log2FC (NM_028398, 100 mg/kg): −0.288
Pik3cb Log2FC (NM_029094, 100 mg/kg): −0.412
Hcar2 Log2FC (NM_030701, 100 mg/kg): 1.41
Cpn1 Log2FC (NM_030703, 100 mg/kg): 0.351
Slc2a2 Log2FC (NM_031197, 100 mg/kg): −0.47
Lamtor2 Log2FC (NM_031248, 100 mg/kg): 0.189
Dock2 Log2FC (NM_033374, 100 mg/kg): −0.474
Ube2n Log2FC (NM_080560, 100 mg/kg): −0.194
Elovl6 Log2FC (NM_130450, 100 mg/kg): 1.22
Acaca Log2FC (NM_133360, 100 mg/kg): 0.893
Fgg Log2FC (NM_133862, 100 mg/kg): −0.387
Acacb Log2FC (NM_133904, 100 mg/kg): 0.681
Il1rap Log2FC (NM_134103, 100 mg/kg): −0.868
Ptpa Log2FC (NM_138748, 100 mg/kg): 0.222
Mylk Log2FC (NM_139300, 100 mg/kg): −0.532
Fegr4 Log2FC (NM_144559, 100 mg/kg): −0.638
Aldob Log2FC (NM_144903, 100 mg/kg): −0.6
C1s1 Log2FC (NM_144938, 100 mg/kg): −0.755
Txndc5 Log2FC (NM_145367, 100 mg/kg): −0.321
Ldlrap1 Log2FC (NM_145554, 100 mg/kg): −0.189
Jak1 Log2FC (NM_146145, 100 mg/kg): −0.166
C8a Log2FC (NM_146148, 100 mg/kg): −1.37
Pkhdi Log2FC (NM_153179, 100 mg/kg): −1.12
Nckap1l Log2FC (NM_153505, 100 mg/kg): −0.653
Mbtps2 Log2FC (NM_172307, 100 mg/kg): 0.306
Cyp4a12a Log2FC (NM_177406, 100 mg/kg): 1.42
Acaa2 Log2FC (NM_177470, 100 mg/kg): 0.314
Jmjd4 Log2FC (NM_178659, 100 mg/kg): −0.516
Nceh1 Log2FC (NM_178772, 100 mg/kg): 0.444
Hadha Log2FC (NM_178878, 100 mg/kg): 0.903
Mfap3 Log2FC (NM_180599, 100 mg/kg): −0.362
Bst2 Log2FC (NM_198095, 100 mg/kg): 0.494
Acsl4 Log2FC (NM_207625, 100 mg/kg): 0.737
Cflar Log2FC (NM_207653, 100 mg/kg): −0.25
Egfr Log2FC (NM_207655, 100 mg/kg): −0.93
Stat3 Log2FC (NM_213659, 100 mg/kg): −0.686
H2-K1 Log2FC (NM_001001892, 100 mg/kg): −0.168
Kdm2a Log2FC (NM_001001984, 100 mg/kg): −0.255
Cfhr2 Log2FC (NM_001025575, 100 mg/kg): −0.596
Ndufs5 Log2FC (NM_001030274, 100 mg/kg): 0.381
Itga1 Log2FC (NM_001033228, 100 mg/kg): −0.312
Dock1 Log2FC (NM_001033420, 100 mg/kg): −0.347
Xaf1 Log2FC (NM_001037713, 100 mg/kg): −0.701
Banf1 Log2FC (NM_001038231, 100 mg/kg): 0.339
Smurf Log2FC (NM_001038627, 100 mg/kg): −0.969
Seh1l Log2FC (NM_001039088, 100 mg/kg): 0.216
Nrp2 Log2FC (NM_001077403, 100 mg/kg): 0.619
Ptafr Log2FC (NM_001081211, 100 mg/kg): −0.408
Brpf3 Log2FC (NM_001081315, 100 mg/kg): 0.3
Aqp8 Log2FC (NM_001109045, 100 mg/kg): −0.632
Igf1 Log2FC (NM_001111274, 100 mg/kg): −0.588
Itga9 Log2FC (NM_001113514, 100 mg/kg): −0.212
Il1r1 Log2FC (NM_001123382, 100 mg/kg): −1.16
Aldh7a1 Log2FC (NM_001127338, 100 mg/kg): −0.344
Rnf152 Log2FC (NM_001160368, 100 mg/kg): −0.687
Cyfip1 Log2FC (NM_001164661, 100 mg/kg): −0.229
Slc25a13 Log2FC (NM_001177572, 100 mg/kg): −0.179
Syk Log2FC (NM_001198977, 100 mg/kg): −0.772
Cd84 Log2FC (NM_001252472, 100 mg/kg): −0.6
Apoc2 Log2FC (NM_001277944, 100 mg/kg): −0.94
Ncf1 Log2FC (NM_001286037, 100 mg/kg): −0.635
Cd68 Log2FC (NM_001291058, 100 mg/kg): −0.732
Itga5 Log2FC (NM_001314041, 100 mg/kg): −0.402
Col6a3 Log2FC (XM_897036, 100 mg/kg): −0.679

Source: patent US11730712B2, “Functionalized long-chain hydrocarbon mono- and di-carboxylic acids and derivatives thereof, and their use for the prevention or treatment of disease” (ESPERVITA THERAPEUTICS, INC., priority 2021, dated 2023)
